Test results as given in article PMC11047535, “Pharmacokinetics and Nephrotoxicity of Polymyxin MRX-8 in Rats: A Novel Agent against Resistant Gram-Negative Bacteria” (Antibiotics, 2024).
Like-named read-outs stand apart in the source and are kept apart here. Positions of bridges follow the written chain, without caps; N, C: chain ends. Non-standard residues stand in square brackets, D forms with d. Residues, ends and D or L forms follow the SMILES beside them. *: point of attachment. Propanoyl(3-OH) = O=C(CCO)*; X1 = CC[C@H](C)CCCCC(=O)*; Dab = NCC[C@H](N)C(=O)O

What was measured:
Format in all cases: in vivo, Sprague-Dawley (SD) rats
[1] = Pharmacokinetics in rat plasma after single subcutaneous administration (LC-MS/MS, non-compartmental analysis); settings: for CLz (total body clearance for extravascular administration) / V (volume of distribution) / AUC(0-t) / Cmax / Tmax / MRT / half-life: LC-MS/MS, NCA, n = 5; for AUC(0-t) / Cmax / Tmax / MRT / half-life: Sprague-Dawley, sc; for MRT: read-out: MRT (mean residence time); for half-life: read-out: T1/2 (terminal half-life) (converted)
Description: A Shimadzu LC-30A UHPLC system (Shimadzu, Kyoto, Japan) coupled with a Sciex QTRAP-5500 tandem mass spectrometer (Sciex, Framingham, MA, USA) was utilized. The chromatography was separated on a PHENOMENEX Kinetex®XB-C18 column (Phenomenex, Torrance, CA, USA) (100 mm × 2.1 mm, 2.6 μm) at 40 °C. The mobile phases were 2 mM of an ammonium acetate solution with 0.1% formic acid as the aqueous phase and acetonitrile solution with 0.1% formic acid as the organic phase. The gradient elution condition settings are detailed in Table S1. The mass spectrometer was operated in positive ESI mode with the following parameters: nebulizer gas (45 psi), heater gas (55 psi), curtain gas (40 psi), ion-spray voltage 4500 V, and ion source temperature of 450 °C.
An aliquot of 40 μL of rat plasma samples, 50 μL of polymyxin B1 (IS, 20 mg/L), and 50 μL of 6% formic acid in water were mixed. Then, 300 μL of acetonitrile was added to the mixture to precipitate proteins and centrifuged at 4 °C at 13,800 g for 10 min. A 100 μL aliquot of the supernatant was transferred and mixed with 150 μL of 6% formic acid water, and 5 μL was injected into the LC-MS/MS system.
A total of 20 wild-type male Sprague-Dawley (SD) rats weighing 280 g ± 20 g were randomly divided into 4 groups. Water and food were adequately provided. Four groups were given MRX-8 at doses of 2 mg/kg, 4 mg/kg, 6 mg/kg, and 8 mg/kg of body weight (dissolved in normal saline). 0.5 mL of blood samples were obtained from the jugular vein (without anesthesia) before and 0.25, 0.5, 1, 2, 4, 6, 8, and 24 h after dosing. Blood samples were collected into tubes with EDTA-K2 anticoagulant and centrifuged at 4 °C at 3500 g for 10 min. The plasma was collected and stored in a −70 °C refrigerator until analysis.
In the meantime, 10 additional SD rats were divided into two groups (5 rats each) and administered PMB at 4 mg/kg and 8 mg/kg, separately. Blood samples were obtained before and 0.25, 0.5, 1, 2, 4, 6, 8, 10, 12, and 24 h after dosing. The drug administration and sample collection methods were consistent with those used for MRX-8.
MRX-8 and MRX-8039 concentrations in plasma were measured, and mean concentration–time curves were plotted. […] After the administration, concentrations below the LLOQ were discarded.

rats [2] = test: Urinary KIM-1 kidney injury biomarker, ELISA; settings: 24 h after single s.c. 4 and 8 mg/kg, high variability within each group
Description: (§1) Rats’ plasma and urine were collected continuously for 24 h after being administered subcutaneously. The plasma collected for the PK assay was split for creatinine and BUN concentrations, whereas a separate experiment was conducted to measure the biomarkers. The concentrations of creatinine and BUN in rat plasma were quantified utilizing the ADVIA Chemistry XPT analyzer (Siemens Healthcare, Munich, Germany). Rat plasma samples, along with quality control samples, were prepared and processed with dedicated reagent cartridges.
(§2) Enzyme-linked immunosorbent assay kits specific for KIM-1 (Cell Signaling Technology, Danvers, MA, USA), NGAL (Sangon Biotech, Shanghai, China), and TIMP-1 (Sangon Biotech, Shanghai, China) were utilized for analysis.

rats [3] = test: Urinary TIMP-1 kidney injury biomarker, ELISA; settings: for urinary TIMP-1 level: saline group 2.89 ± 1.80
Description: as §1, §2

rats [4] = test: Blood urea nitrogen (BUN) in rat plasma (nephrotoxicity), ADVIA Chemistry XPT analyzer; settings: for BUN level: SD rats
Description: as §1

rats [5] = test: Creatinine in rat plasma (nephrotoxicity), ADVIA Chemistry XPT analyzer; settings: for creatinine concentration: SD rats
Description: as §1

rat kidney tissues = test: Kidney histology, PAS staining and semi-quantitative scores (SQS); settings: PAS staining
Description: The kidney tissues were taken 24 h after the PK sample collection. The tissues were embedded in paraffin, sliced, dewaxed into water, and washed for 5 min. […] The pathology scores refer to the paper published by Jumana et al.. Briefly, the renal histological assessment included three grades of tubular damage. Scores were assigned to grades: grade 1 = 1, grade 2 = 4, and grade 3 = 10. Kidney involvement was assessed based on the percentage of affected slices: <1% = 0, 1 to <5% = 1, 5 to <10% = 2, 10 to <20% = 3, 20 to <30% = 4, 30 to <40% = 5, and ≥40% = 6. The overall score was calculated by multiplying the percentage score with the grade score. Finally, SQS for renal histological changes was assigned: SQS 0 = no significant change (overall score: <1); SQS +1 = mild damage (overall score: 1 to <15); SQS +2 = mild-to-moderate damage (overall score: 15 to <30); SQS +3 = moderate damage (overall score: 30 to <45); SQS +4 = moderate-to-severe damage (overall score: 45 to <60); and SQS +5 = severe damage (overall score: 60). The samples in this experiment were examined by pathologist Shaojun Liu, who had no knowledge of the grouping.
A one-way ANOVA was performed to evaluate (1) the PK parameters of T1/2, CLZ, V, and MRT at the dosages of 4, 6, and 8 mg/kg; (2) the concentrations of kidney injury biomarkers between the saline, MRX-8, and PMB groups. […]

rats [6] = test: Urinary NGAL kidney injury biomarker, ELISA; settings: saline group 45.22 ± 1.46
Description: as §1, §2

rats [7] = test: Plasma NGAL kidney injury biomarker, ELISA; settings: 24 h after single s.c. 8 mg/kg, saline group 53.03 ± 2.25
Description: as §1, §2

[8] = SD rats, single s.c. dose 4 mg/kg, plasma
[9] = SD rats, single s.c. dose 8 mg/kg, plasma
[10] = rat, in vivo, SD rats, single s.c. dose 4 mg/kg, plasma
[11] = rat, in vivo, SD rats, single s.c. dose 8 mg/kg, plasma

**Q.** Which “Tmax delay of MRX-8039 relative to MRX-8” value ([1]; rat, in vivo) does the source give for CC(C)C[C@@H]1NC(=O)[C@@H](Cc2ccccc2)NC(=O)[C@H](CCN)NC(=O)[C@@H](NC(=O)[C@H](CCN)NC(=O)[C@@H](NC(=O)[C@H](CCN)NC(=O)CCO)[C@@H](C)O)CCNC(=O)[C@H]([C@@H](C)O)NC(=O)[C@H](CCN)NC(=O)[C@H](CCN)NC1=O [MRX-8039] ({Propanoyl(3-OH)}-[Dab]T[Dab][Dab][Dab][dF]L[Dab][Dab]T; lactam 4-C) here?
**A.** The value was “approximately 1.5 h”.

**Q.** Which results are given for CC[C@H](C)CCCCC(=O)N[C@@H](CCN)C(=O)N[C@H](C(=O)N[C@@H](CCN)C(=O)N[C@H]1CCNC(=O)[C@H]([C@@H](C)O)NC(=O)[C@H](CCN)NC(=O)[C@H](CCN)NC(=O)[C@H](CC(C)C)NC(=O)[C@@H](Cc2ccccc2)NC(=O)[C@H](CCN)NC1=O)[C@@H](C)O [PMB, polymyxin B] (X1-[Dab]T[Dab][Dab][Dab][dF]L[Dab][Dab]T; lactam 4-C)?
**A.** change of urine KIM-1 levels compared to the saline group (rats [2]): No statistically significant differences; Tmax (absorption, as read from Figure 3) ([1]; SD rats, s.c. administration, plasma, range over dose groups): 4~6 h; CLz (total body clearance for extravascular administration) [1, 8]: 4 ± 1 mL/min/kg; V (volume of distribution) [1, 8]: 1.52 ± 0.27 L/kg; CLz (total body clearance for extravascular administration) [1, 9]: 4.17 ± 0.33 mL/min/kg; V (volume of distribution) [1, 9]: 1.49 ± 0.31 L/kg; AUC(0-t) ([1]; rat, in vivo, 4 mg/kg, SD rats, single s.c. dose 4 mg/kg, plasma, read-out: AUC0–8 h): 9550 ± 2540 ng·h/mL; AUC(0-t) ([1]; rat, in vivo, 4 mg/kg, SD rats, single s.c. dose 4 mg/kg, plasma, read-out: AUC0–24 h): 17100 ± 3900 ng·h/mL; AUC(0-t) ([1]; rat, in vivo, 8 mg/kg, SD rats, single s.c. dose 8 mg/kg, plasma, read-out: AUC0–8 h): 17900 ± 3050 ng·h/mL; AUC(0-t) ([1]; rat, in vivo, 8 mg/kg, SD rats, single s.c. dose 8 mg/kg, plasma, read-out: AUC0–24 h): 31200 ± 3140 ng·h/mL; Cmax [1, 10]: 1770 ± 510 ng/mL; Tmax [1, 10]: 4.8 ± 1.1 h; MRT [1, 10]: 8.66 ± 0.7 h; half-life [1, 10]: 4.55 ± 0.56 h; Cmax [1, 11]: 3150 ± 440 ng/mL; Tmax [1, 11]: 6 h; MRT [1, 11]: 8.23 ± 0.71 h; half-life [1, 11]: 4.09 ± 0.44 h; urinary TIMP-1 level (rats [3]; 24 h after single s.c. 4 mg/kg): 20.65 ± 12.44 ng/mL; urinary TIMP-1 level (rats [3]; 24 h after single s.c. 8 mg/kg): 20.54 ± 7.82 ng/mL; change of urinary TIMP-1 compared to the saline group (rats [3]; 24 h after single s.c. 4 and 8 mg/kg): increased significantly; BUN level (rats [4]; 8 h after single s.c. 4 mg/kg, saline group 5.52 ± 0.56): 19.58 ± 3.05 mmol/L; BUN level (rats [4]; 8 h after single s.c. 8 mg/kg): 15.36 ± 3.05 mmol/L; change of BUN levels compared to the saline group (rats [4]; 8 h and 24 h after single s.c. dose (PMB 4 and 8 mg/kg; MRX-8, except significant increase at 4 mg/kg at 8 h)): significant increase; BUN level (rats [4]; 24 h after single s.c. 4 mg/kg): 44.3 ± 1.12 mmol/L; BUN level (rats [4]; 24 h after single s.c. 8 mg/kg): 54.85 ± 11.81 mmol/L; creatinine concentration (rats [5]; 8 h after single s.c. 4 mg/kg, saline group 21.25 ± 2.22): 103.86 ± 12.66 µmol/L; creatinine concentration (rats [5]; 8 h after single s.c. 8 mg/kg, saline group 21.25 ± 2.22): 85.61 ± 17.27 µmol/L; change of blood creatinine levels compared to the saline group (rats [5]; 8 h and 24 h after single s.c. dose (MRX-8 2 to 8 mg/kg; PMB 4 and 8 mg/kg), one-way ANOVA): significant increase; creatinine concentration (rats [5]; 24 h after single s.c. 4 mg/kg, saline group 22.5 ± 2.52): 169.79 ± 61.93 µmol/L; creatinine concentration (rats [5]; 24 h after single s.c. 8 mg/kg, saline group 22.5 ± 2.52): 110.81 ± 67.3 µmol/L; histological findings in kidney tissues (rat kidney tissues; 24 h post single s.c. dose of 8 mg/kg): more severe renal damage, including tubular dilation, cellular necrosis, and tubular formation; histological findings in kidney tissues (rat kidney tissues; 24 h post single s.c. dose, compared to the saline group): mild focal tubular cell shedding and cytoplasmic attenuation; urinary NGAL level (rats [6]; 24 h after single s.c. 4 mg/kg): 50.34 ± 2.70 ng/mL; urinary NGAL level (rats [6]; 24 h after single s.c. 8 mg/kg): 56.95 ± 6.01 ng/mL; NGAL level in plasma (rats [7]): 61.14 ± 2.52 ng/mL
